{"source": "patent US10988743B2", "about": "“Coryneform bacterial transformant and method for producing 4-aminobenzoic acid or salt thereof using same” (RESEARCH INSTITUTE OF INNOVATIVE TECHNOLOGY FOR THE EARTH, priority 2016, dated 2021)", "type_in_all_cases": "cell-based", "key": {"[1]": {"tested_on": "Saccharomyces cerevisiae W303", "assay": "Growth inhibition by para-aminobenzoic acid in aerobic culture (OD610)", "details": "aerobic shaking culture 30° C.", "protocol": "(§1) Experiments about growth inhibition by para-aminobenzoic acid in aerobic culture were carried out, regarding Corynebacterium glutamicum, Escherichia coli, Streptomyces lividans, Pseudomonas putida, and Saccharomyces cerevisiae. No example of Pseudomonas putida S12 used in the present experiment has been reported to be a para-aminobenzoic acid producing host, but it was used as a comparative example, since it has been reported to be a solvent resistant bacterium and could be considered to have excellent resistance to para-aminobenzoic acid.\nSaccharomyces cerevisiae W303 was applied to YEPD-agar plate [containing 2% polypeptone, 1% yeast extract, 2% glucose, and 1.5% agar] and was incubated at 30° C. for 20 hours in a dark place. Saccharomyces cerevisiae grown on the plate described above was inoculated in the YEPD-liquid medium [containing 2% polypeptone, 1% yeast extract, and 2% glucose], and aerobic shaking culture was carried out at 30° C. for 13 hours. Saccharomyces cerevisiae grown under the above-described conditions was inoculated in 100 ml of YEPD-liquid medium so that the initial bacterial cell concentration OD610=0.05. […] The growth of bacterial cells was determined by measuring OD610.\n(§2) How the addition of para-aminobenzoic acid to medium influenced aerobic growth was analyzed, and the results are shown in FIG. 1."}, "[2]": {"tested_on": "Corynebacterium glutamicum strain R", "assay": "Growth inhibition by para-aminobenzoic acid in aerobic culture (OD610)", "details": "aerobic shaking culture 33° C.", "protocol": "as §1\nCorynebacterium glutamicum strain R was applied to an A-agar plate containing glucose at 4%, and was incubated at 33° C. for 15 hours in a dark place. One platinum loop of Corynebacterium glutamicum grown on the plate described above was inoculated in a test tube having therein 10 ml of the A-liquid medium containing of glucose at 4%, and was subjected to aerobic shaking culture at 33° C. for 15 hours. Corynebacterium glutamicum grown under the above-described conditions was inoculated in 10 ml of the A-liquid medium containing glucose at 4% so that the initial bacterial cell concentration OD610=0.05. […] The growth of bacterial cells was determined by measuring OD610.\nas §2"}, "Pseudomonas putida S12": {"tested_on": "Pseudomonas putida S12", "assay": "Growth inhibition by para-aminobenzoic acid in aerobic culture (OD610)", "protocol": "as §1\nPseudomonas putida S12 was applied to the LB-agar plate, and was incubated at 30° C. for 15 hours in a dark place. Pseudomonas putida grown on the plate described above was inoculated in the LB-liquid medium, and aerobic shaking culture was carried out at 30° C. for 13 hours. Pseudomonas putida grown under the above-described conditions was inoculated in 100 ml of LB-liquid medium so that the initial bacterial cell concentration OD610=0.05, simultaneously, para-aminobenzoic acid was added so that the final concentrations thereof became 0, 100, 200, 300 mM, and aerobic shaking culture was carried out at 30° C. The growth of bacterial cells was determined by measuring absorbance of OD610.\nas §2"}, "[3]": {"tested_on": "Corynebacterium glutamicum strain R", "assay": "Influence of para-aminobenzoic acid on glucose consumption rate (jar fermenter)", "details": "0, 50, 100 or 200 mM para-aminobenzoic acid, 5% glucose, 33° C., pH 7.0", "protocol": "Influences of para-aminobenzoic acid on the glucose consumption rate were examined by a method described below, using Corynebacterium glutamicum strain R.\nAfter a wild strain of Corynebacterium glutamicum was inoculated in 10 ml of the A-liquid medium containing 2% glucose, aerobic shaking culture was carried out at 33° C. for 18 hours. After the same strain was inoculated in 100 ml of the A-liquid medium containing 2% glucose, aerobic shaking culture was carried out at 33° C. for 12 hours. […]\nBacterial cells of the strain grown under the above-described conditions were collected by centrifugation (4° C., 5000×g, 10 minutes), and the bacterial cells thus obtained were washed with 0.9% sodium chloride aqueous solution once. […] The glucose concentration in the reaction solution was monitored by using a glucose sensor."}, "Escherichia coli JM109": {"tested_on": "Escherichia coli JM109", "assay": "Growth inhibition by para-aminobenzoic acid in aerobic culture (OD610)", "details": "aerobic shaking culture 37° C.", "protocol": "as §1\nEscherichia coli JM109 was applied to LB-agar plate [containing 1% polypeptone, 0.5% yeast extract, 0.5% sodium chloride, and 1.5% agar], and was incubated at 37° C. for 15 hours in a dark place. Escherichia coli grown on the plate described above was inoculated in LB-liquid medium [containing 1% polypeptone, 0.5% yeast extract, and 0.5% sodium chloride], and was subjected to aerobic shaking culture at 37° C. for 13 hours. Escherichia coli grown under the above-described conditions was inoculated in 100 ml of LB-liquid medium so that the initial bacterial cell concentration OD610=0.05. […] The growth of bacterial cells was determined by measuring OD610.\nas §2"}, "[4]": {"tested_on": "Streptomyces lividans 1326", "assay": "Growth inhibition by para-aminobenzoic acid in aerobic culture (OD610)", "details": "for growth of Streptomyces lividans 1326: aerobic shaking culture 28° C.", "protocol": "as §1\nStreptomyces lividans 1326 was applied to LB-agar plate, and was incubated at 28° C. for 24 hours in a dark place. Streptomyces lividans grown on the plate described above was inoculated in LB-liquid medium with a coil spring, and aerobic shaking culture was carried out at 28° C. for 24 hours. Streptomyces lividans grown under the above-described conditions was inoculated in 10 ml of LB-liquid medium with a coil spring so that the initial bacterial cell concentration OD610=0.2. Simultaneously, para-aminobenzoic acid was added so that the final concentrations thereof became 0, 100, 200, 300 mM, and aerobic shaking culture was carried out at 28° C. The growth of bacterial cells was determined by measuring OD610.\nas §2"}}, "note": "Entries after “also recorded” stand apart in the source; their conditions may differ.", "data": [{"smiles": "Nc1ccc(C(=O)O)cc1", "note": "[para-aminobenzoic acid, 4-aminobenzoic acid]", "values": [{"measurement": "growth of Saccharomyces cerevisiae W303", "setting": "[1]; 200 mM para-aminobenzoic acid", "result": "strongly inhibited"}, {"measurement": "growth of Saccharomyces cerevisiae W303", "setting": "[1]; 300 mM para-aminobenzoic acid", "result": "extremely strongly inhibited; also recorded: substantially completely inhibited"}, {"measurement": "growth of Corynebacterium glutamicum strain R", "setting": "[2]; 300 mM para-aminobenzoic acid", "result": "able to grow"}, {"measurement": "growth of Corynebacterium glutamicum", "setting": "[2]; 400 mM para-aminobenzoic acid", "result": "able to grow"}, {"measurement": "growth of Pseudomonas putida S12", "setting": "Pseudomonas putida S12; 100 mM para-aminobenzoic acid, aerobic shaking culture 30° C.", "result": "substantially completely inhibited"}, {"measurement": "growth of Pseudomonas putida", "setting": "Pseudomonas putida S12; 300 mM para-aminobenzoic acid", "result": "substantially completely inhibited"}, {"measurement": "saccharide (glucose) consumption rate of Corynebacterium glutamicum", "setting": "[3]", "result": "no substantial decrease"}, {"measurement": "growth of Escherichia coli JM109", "setting": "Escherichia coli JM109; 100 mM para-aminobenzoic acid", "result": "significantly inhibited"}, {"measurement": "growth of Escherichia coli JM109", "setting": "Escherichia coli JM109; 300 mM para-aminobenzoic acid", "result": "substantially completely inhibited"}, {"measurement": "growth of Streptomyces lividans 1326", "setting": "[4]; 100 mM para-aminobenzoic acid", "result": "significantly inhibited"}, {"measurement": "growth of Streptomyces lividans 1326", "setting": "[4]; 200 mM para-aminobenzoic acid", "result": "substantially completely inhibited"}, {"measurement": "growth of Streptomyces lividans", "setting": "[4]; 300 mM para-aminobenzoic acid", "result": "substantially completely inhibited"}]}]}
